Patent US20220267864A1, “THERAPEUTIC, DIAGNOSTIC, AND PROGNOSTIC METHODS FOR CANCER” (Genentech, Inc., priority 2014, published 2022)

System: UMUC-10 cell line
Test: Cell viability (CELLTITER-GLO) of bladder cancer cell line treated with erlotinib
Format: cell-based
Conditions: UMUC-10 bladder cancer cell line; 72 hours; 3-fold dilution series starting with a 5 uM dose; FIG. 11G
Excerpt: Bladder cancer cell lines were obtained from the American Type Culture Collection (ATCC, Manassas, Va.) or from the Deutsche Sammlung von Mikroorganismen and Zellkulturen GmbH (DSMZ, Braunschweig, Germany). Cell lines were archived at an early passage in the Genentech cell bank and authenticated either by a multiplex short tandem repeat assay or as previously described (O'Brien et al. Clin. Cancer Res. 16(14): 3670-3683, 2010). All cell lines were maintained in RPMI 1640 or DMEM supplemented with 10% fetal bovine serum (Sigma, St. Louis, Mo.), nonessential amino acids, and 2 mmol/L L-glutamine.
Details of its structure, selectivity, and biological properties have been previously described (Stamos et al. J. Biol. Chem. 277(48): 46265-46272, 2002). Cell viability studies were carried out as previously described (O'Brien et al. Clin. Cancer Res. 16(14): 3670-3683, 2010). Cells were plated in quadruplicate at a density of 2,500 cells per well in 384-well plates in normal growth medium and allowed to adhere overnight. […] Cell viability was measured 72 hours later using the […]-GLO® Luminescent Cell Viability Assay (Promega, Madison, Wis.). The percent viability at each concentration was calculated compared to the control treated only with DMSO.

## C#Cc1cccc(Nc2ncnc3cc(OCCOC)c(OCCOC)cc23)c1 [erlotinib, [6,7-bis(2-methoxyethoxy)-4-quinazolin-4-yl]-(3-ethynylphenyl) amine]
  growth inhibition (GI): > 25%
